These results are taken from article doi:10.1101/2020.12.20.110478v1 (biorxiv, 2020).

What is called IC50 is the concentration that gives 50% inhibition. Lower therefore signals inhibition by little substance.

The target of assay [1] is T1, human GlyT1 (hGlyT1) (Homo sapiens, UniProt P48067).
T1 sequence (P48067 1-706): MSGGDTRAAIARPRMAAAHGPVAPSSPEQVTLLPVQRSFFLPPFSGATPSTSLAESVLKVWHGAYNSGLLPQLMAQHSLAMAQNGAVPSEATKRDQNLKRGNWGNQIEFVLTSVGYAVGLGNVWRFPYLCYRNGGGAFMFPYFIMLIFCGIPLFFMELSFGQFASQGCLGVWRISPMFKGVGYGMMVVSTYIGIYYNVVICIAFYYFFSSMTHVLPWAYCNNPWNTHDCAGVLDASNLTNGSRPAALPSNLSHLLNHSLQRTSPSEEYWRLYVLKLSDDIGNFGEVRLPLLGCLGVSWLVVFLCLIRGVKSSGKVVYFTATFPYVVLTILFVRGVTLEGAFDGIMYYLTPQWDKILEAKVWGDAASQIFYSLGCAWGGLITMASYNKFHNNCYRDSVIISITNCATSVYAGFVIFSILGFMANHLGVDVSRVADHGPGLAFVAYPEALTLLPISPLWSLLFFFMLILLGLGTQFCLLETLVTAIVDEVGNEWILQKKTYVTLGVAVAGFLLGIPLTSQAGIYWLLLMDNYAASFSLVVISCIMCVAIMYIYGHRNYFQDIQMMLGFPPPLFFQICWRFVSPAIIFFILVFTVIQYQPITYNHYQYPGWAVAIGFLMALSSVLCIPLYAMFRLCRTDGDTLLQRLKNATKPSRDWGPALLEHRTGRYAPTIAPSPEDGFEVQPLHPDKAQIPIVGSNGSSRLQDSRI
Description: [3H]Org24598 membrane competition, filtration. Format: binding.

For assay [2], the target named is T1, human GlyT1 (hGlyT1). Description: [3H]glycine uptake inhibition in Flp-in-CHO cells. It counts as cell-based.
The target in assay [3] is T2, GlyT1^minimal (Homo sapiens, UniProt P48067).
T2 sequence (P48067 91-684): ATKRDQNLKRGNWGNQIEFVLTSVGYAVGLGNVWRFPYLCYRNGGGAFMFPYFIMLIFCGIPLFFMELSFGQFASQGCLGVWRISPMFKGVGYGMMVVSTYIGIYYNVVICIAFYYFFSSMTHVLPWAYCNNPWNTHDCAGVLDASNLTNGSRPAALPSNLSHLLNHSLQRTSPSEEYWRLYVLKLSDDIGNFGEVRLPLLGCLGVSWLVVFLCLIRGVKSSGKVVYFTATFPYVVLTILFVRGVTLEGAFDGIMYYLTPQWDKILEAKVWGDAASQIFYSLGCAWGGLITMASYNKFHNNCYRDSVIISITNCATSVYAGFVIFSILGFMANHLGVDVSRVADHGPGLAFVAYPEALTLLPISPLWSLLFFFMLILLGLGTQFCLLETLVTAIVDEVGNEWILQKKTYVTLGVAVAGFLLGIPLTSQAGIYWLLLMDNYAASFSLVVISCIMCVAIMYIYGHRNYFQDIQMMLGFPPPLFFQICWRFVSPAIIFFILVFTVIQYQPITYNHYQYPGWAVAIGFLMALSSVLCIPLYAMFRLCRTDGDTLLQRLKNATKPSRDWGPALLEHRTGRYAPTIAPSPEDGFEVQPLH
Kind of assay: CPM thermofluor. Conditions: 10 uM Cmpd1; 0.73 uM protein; pH 7.5; LMNG. Format: binding.

For the compound `CS(=O)(=O)c1ccc(OCC(F)(F)C(F)(F)F)c(C(=O)N2Cc3ccc(OC4CCOCC4)cc3C2)c1` [Cmpd1], the values for the IC50 in assay [1] and in assay [2] were 0.0125 µM and 0.0264 µM, respectively. In assay [3], the “increase in melting point” value came out at 30.5 °C.
